What was measured:
[1] = test system: neural progenitor subpopulation from the ventricular zone (VZ); test: High-concentration additional signals on ventricular zone cells: neural progenitor subpopulation aligned to VZ-D0, differential genes by L1-norm; assay type: cell-based, mouse
Procedure: Having seen that these signals can control population structure, whether these additional signals induced major transcriptional changes in neural stem cells was determined. Further, whether any changes restored the functional defects observed in response to in vitro culture was determined. To learn these transcriptional changes, a new experiment was performed using high concentrations of signaling factors for two reasons: 1) the original combinatorial screen required the cells to be fixed in methanol, which may disrupt gene expression values thus making comparing that data directly to the in vivo data difficult and 2) the original combinatorial screen suffered from low sample number for some of the conditions, due to variation in proliferation rate. This new experiment was performed by adding high concentrations of additional signals (BMP4 (20 ng/mL), CHIR (3 uM), PDGF-AA (20 ng/mL) and DLL1 (surface-coated)) in addition to high concentrations of EGF/FGF immediately after dissociation of cells from the VZ, and all cells were grown for five days in these signal cocktails before profiling.
First, models were built for all of the new samples, aligned each to the VZ-D0 sample (which served as the control), and then only the subpopulations across all samples that aligned to the neural progenitor population were pulled out (FIG. 39B). By plotting the Jeffreys Divergence between these aligned populations (FIG. 39C), all the in vivo populations (E15, E18, and VZ-D0) were seen to be close to each other, while in vitro populations were very distant (VZ-D18 and ivNSC).
To confirm this possibility, the genes that were differentially expressed in the BMP4-, DLL-, PDGF-, and CHIR-containing cells were examined, and these genes were compared to the genes discovered in FIG. 36A-36I. […] By contrast, CHIR only rescued 3 of the lost genes, while DLL and PDGF had only one differentially regulated gene each (FIG. 39D).
Normally in development, these neural progenitors give rise to neurons that form six distinct layers in the cortex. These cortical layers have distinct functions, connectivity patterns, and gene expression patterns, which have been characterized in the literature. The gene expression patterns of these layer-specific genes were examined in neural progenitor populations aligned across all samples (FIGS. 39H-39I). Expression of these genes, while noisy, was very extensive in the in vivo populations, but that culture in vitro erased their expression.
Neuroprogenitors are dissociated from the combined cortex, hippocampus and ventricular zone of E18 mice (Brainbits). After dissociation and resuspension of the cells in NPgrow, cells were counted and plated onto ultra-low attachment 100 mm culture plates (Corning) at one million cells per plate in 10 mL of NPgrow supplemented with 1% Penicillin-Streptomycin. Cells were cultured at 37° C. and 5% CO2 and supplemented medium was changed every 3 to 4 days. In some experiments, subventricular zone (SVZ) stem cells were derived with supplemental factors during derivation. PDGF-AA and BMP4 (Peprotech) were used at […], and 20 ng/mL. CHIR99021 (Stem Cell) was used at 3 uM. DLL1 ligand was coated onto tissue culture plastic for one hour before plating cells.
For each gene, two empirical distributions P1(g), P2(g), one for each subpopulation, were determined. These distributions were discretized over identical histogram binnings, a, over the gene's entire range of expression, Ω. Then the L1 distance was defined as: d=sign(g2−g1)Σa∈Ω∥P1(a)−P2(a)∥1, where g1 and g2 denote the respective means of subpopulations 1 and 2. […] The L1 distance ranged from −2 to +2, both of which corresponded to completely non-overlapping distributions. Genes with L1 distances of high magnitude (≳0.5) always had distributions which, by eye, were in obvious agreement with the labeled directionality. […] Query.

[2] = test system: neural stem cells / progenitor subpopulations from E18 mouse brain; test: Combinatorial signal screen on cells dissociated from the brain: LLR ranking, query, multinomial logistic regression of subpopulation abundances; assay type: cell-based; details: for log-likelihood ratio (LLR) score against control population: control 20 ng/mL EGF/FGF
Procedure: Next, whether and how signaling interventions can pre-emptively bias the transcriptional state of neural stem cells, potentially restoring lost functionality, were determined. Given the finding that transcriptional changes happened in less than three days after in vitro culture, signals were added immediately after dissociation from the brain. Signals known to be important in neural stem cell differentiation into astrocytes (BMP4), neurons (Wnt pathway through CHIR activation), or oligodendrocytes (PDGF-AA), were chosen. A combinatorial screen, in which these signals were added together with EGF/FGF at varying concentrations to dissociated cells from the brain, were performed. The cells were grown for 5 days before profiling. To profile all of these samples, a multiplexing approach, in which cells were methanol fixed and then covalently labeled with a separate exogenous DNA barcode for each experimental condition, was used. A total of 8691 cells were profiled across 19 conditions [See Methods—Experimental multiplexing using Clicktags in this example].
First, how the populations responded at a high-level were examined by using the PopAlign framework to build new models of populations, and the populations were ranked against a control population using a Log-likelihood ratio score (FIG. 38A). In this case, the control population was defined as the 20 ng/mL EGF/FGF condition, which is the concentration of growth factors normally used to propagate neural stem cells in culture. The log-likelihood ratio score is a single metric that measures the extent to which an entire population model diverges from a control population.
To investigate this more deeply, how the population structure of these progenitor cells responded to the signaling cues was determined. For this analysis the query function [See Methods—Query in this example] of the modeling framework was used to score all cells in each sample using a standard model built from the control population. For this combinatorial screen, some conditions suffered from poor sampling (roughly 100 cells vs. 1000 cells for most samples) due to variation in proliferation rates. Thus, querying all samples using the same model was more robust than building separate models (which can be of poor quality with severe undersampling). The first 3 principal components (PCs) were used as the feature vectors in order to improve the sampling within the gene expression space.
In this new analysis, the population were segmented into more fine-grained subpopulations (FIG. 38B). While there was a committed neuroblast population, the neural progenitor population now split into three subpopulations: (1) a proliferating progenitor (PP) population that actively expressed mitotic genes, (2) a non-proliferating progenitor population (NPP), as well as (3) a basal progenitor (BP) that only expressed the progenitor program (Prog), but not glial genes like ALDOC or SPARCL1. Using the control model, individual cells from each sample were scored and assigned into one of the four subpopulations, and abundances of each individual subpopulation across all experimental samples were (FIG. 38D).
To dissect how the abundances of these individual populations responded to signals, a multinomial logistic regression analysis was performed. Multinomial logistic regression models were used to determine the probability of each cell belonging to one of K mutually exclusive classes (in this case, the four subpopulations defined above) based on m independent predictor variables (in this case, the concentrations of each signal) [See Methods—Multinomial logistic regression in this example].
By examining the regression coefficients β, the relationship between each signal and how the signal regulates the proportions of each cell type can be determined. Importantly, the regression model only computed coefficients for K−1 of the outcome classes, while the K^th class was treated as a reference. […]

[3] = test system: primary human peripheral blood mononuclear cells (PBMCs); test: PBMC signaling experiment: single-cell mRNA-seq with PopAlign alignment to the reference PBMC sample; assay type: cell-based; details: 1 ng/mL, 13 hours
Procedure: One non-limiting application of PopAlign is to study heterogeneous cell populations in the human body as they respond to environmental change, drug treatments, and disease. The human immune system is an extremely heterogeneous physiological system that is central for disease and cell engineering applications. As a test case, PopAlign was tested for its ability to identify subtype-specific signaling responses in a complex mixture of primary human immune cells. Thus, primary human peripheral blood mononuclear cells (PBMCs) (FIG. 17A) were treated with two lymphokines—granulocyte-macrophage colony-stimulating factor (GM-CSF) (FIG. 17C) and interferon-gamma (IFNG) (FIG. 17D) that are known to have a specific impact on monocytes (See Experimental Methods). […] In the reference PBMCs, five independent cell densities (FIG. 17A) were identified and classified using canonical markers from the literature (FIG. 17B). The signal treated cell-populations (FIGS. 17C-17D) were aligned to the PBMC data (FIG. 17A), finding that, for both signals, the monocyte populations (mixtures PBMC-1, PBMC-3) had the largest shifts in their average gene expression state (|Δμ|>0.04) (FIG. 17F). While T-cell abundances changed (numbers), their mean cell states (μ) had the lowest magnitude of gene expression shift. For immune cell experiments, the independent mixture components were classified as effector T cells (CD3+/CD57+), naive T-cells(CD3+/CD28+), erythrocytes (HBB+), canonical monocytes (CD14+/CD16low), and nonclassical monocytes(CD14low/CD16++) (FIG. 16E). Populations in the test samples—GM-CSF (FIG. 16B) and IFNG (FIG. 15C)—were aligned to the reference populations (control) by finding pairs of components that minimize the Jeffrey's divergence (FIG. 16D). Cryopreserved PBMCs sourced from Hemacare (~10 million cells, source ID: D23127, Lot: 17043194) were thawed in a 37° C. waterbath for 2 minutes after which the cells were transferred to a 15 mL conical tube. Prewarmed RPMI1640 was then added to the 15 mL conical to a final volume of 10 mL and centrifuged for 2 minutes at 300RCF to pellet the cells. Supernatant was removed and cells were resuspended in 10 mL of RPMI1640 supplemented with 10% FBS and 1% pen/strep. The cell suspension was then plated onto a 100 mm low attachment plate and placed in a CO2 incubator at 37° C. for 5 hours for the cells to recover. For each condition, 700,000 cells were aliquoted into a well of a 96 well plate. These cells were cultured for 13 hours under two different conditions: 1) IFN-γ@ 1 ng/mL, 2) GM-CSF 1 ng/mL, each with a single additional replicate. After incubation, the plate was sealed with an aluminum adhesive and centrifuged for 3 minutes at 300RCF. […]

Row | Molecule | log-likelihood ratio (LLR) score against control population ([2]; 5 days) | class of transcriptional (signaling) response of canonical and non-canonical monocytes [3] | gene expression programs altered in monocytes [3] | number of differentially regulated genes ([1]; 5 days with high EGF/FGF) | further results
1 | Cc1c[nH]c(-c2cnc(NCCNc3ccc(C#N)cn3)nc2-c2ccc(Cl)cc2Cl)n1 [CHIR, CHIR99021, reference compound] | lowest LLR score | – | – | – | number of genes downregulated in ivNSCs that are re-induced (upregulated) by the signal ([1]; of 190 genes downregulated in ivNSCs vs E18 NProgs, 5 days with high EGF/FGF): 3 genes; odds ratio, proliferating progenitors (PP) vs non-proliferating progenitors (NPP) ([2]; per unit of signal (unit = maximum: EGF/FGF 20 ng/mL each, CHIR 3 uM), 5 days): 0.6
2 | GM-CSF: lymphokine signal applied to PBMCs at 1 ng/mL | – | additive | activating a new gene expression program called Chemokine Secretion/Leukocyte Migration pathway | – | –
3 | IFNG: lymphokine signal applied to PBMCs at 1 ng/mL | – | convergent | up-regulation of pathways involved in antigen presentation and phagocytosis | – | –
4 | PDGF | – | – | – | one | odds ratio, basal progenitors vs non-proliferating progenitors ([2]; per unit of signal (PDGF-AA 20 ng/mL), 5 days): 1.75
5 | DLL: DLL1 ligand, surface-coated onto tissue culture plastic (protein, UniProt O00548 18-723, looked up, surface-coated, DLL1 ligand, surface-coated onto tissue culture plastic) Delta-like protein 1: QVWSSGVFELKLQEFVNKKGLLGNRNCCRGGAGPPPCACRTFFRVCLKHYQASVSPEPPCTYGSAVTPVLGVDSFSLPDGGGADSAFSNPIRFPFGFTWPGTFSLIIEALHTDSPDDLATENPERLISRLATQRHLTVGEEWSQDLHSSGRTDLKYSYRFVCDEHYYGEGCSVFCRPRDDAFGHFTCGERGEKVCNPGWKGPYCTEPICLPGCDEQHGFCDKPGECKCRVGWQGRYCDECIRYPGCLHGTCQQPWQCNCQEGWGGLFCNQDLNYCTHHKPCKNGATCTNTGQGSYTCSCRPGYTGATCELGIDECDPSPCKNGGSCTDLENSYSCTCPPGFYGKICELSAMTCADGPCFNGGRCSDSPDGGYSCRCPVGYSGFNCEKKIDYCSSSPCSNGAKCVDLGDAYLCRCQAGFSGRHCDDNVDDCASSPCANGGTCRDGVNDFSCTCPPGYTGRNCSAPVSRCEHAPCHNGATCHERGHRYVCECARGYGGPNCQFLLPELPPGPAVVDLTEKLEGQGGPFPWVAVCAGVILVLMLLLGCAAVVVCVRLRLQKHRPPADPCRGETETMNNLANCQREKDISVSIIGATQIKNTNKKADFHGDHSADKNGFKARYPAVDYNLVQDLKGDDTAVRDAHSKRDTKCQPQGSSGEEKGTPTTLRGGEASERKRPDSGCSTSKDTKYQSVYVISEEKDECVIATEV | – | – | – | one | –
6 | BMP4: signaling factor (Peprotech) important in neural stem cell differentiation into astrocytes (protein, UniProt P12644 293-408, looked up) Bone morphogenetic protein 4: SPKHHSQRARKKNKNCRRHSLYVDFSDVGWNDWIVAPPGYQAFYCHGDCPFPLADHLNSTNHAIVQTLVNSVNSSIPKACCVPTELSAISMLYLDEYDKVVLKNYQEMVVEGCGCR | lowest LLR score | – | – | – | rescue of expression of cortical layer-specific genes in neural progenitors ([1]; 5 days in culture): only signal that could rescue the expression of these genes; number of genes upregulated in ivNSCs that are suppressed by the signal ([1]; 5 days with high EGF/FGF): 22 genes; Jeffreys Divergence of aligned neural progenitor subpopulation to in vivo populations ([1]; compared to VZ-D5, VZ-D5-CHIR, VZ-D5-DLL, VZ-D5-PDGF): closest to the in vivo populations; committed neuroblasts (CN) proportion of the population ([2]; addition of BMP and low EGF/FGF): ~50%; odds ratio, committed neuroblasts vs non-proliferating progenitors ([2]; per unit of signal (BMP4 20 ng/mL), 5 days): 2.2

From US12700475B2, “Systems and methods for dissecting heterogeneous cell populations” (California Institute of Technology, priority 2018, dated 2026)
